Values quoted from earlier work as cited in patent US7713673B2, “Fixing liquid, toner fixing method, toner fixing device, image forming method, and image forming apparatus” (priority 2005, dated 2010).

Conditions: acute oral toxicity; given in brackets as a material property of the component

| Structure (SMILES) | LD50 |
| --- | --- |
| CC(O)CCO (stereo not shown) [1,3-butanediol] | 10000 mg/kg |
| CCCCOC(=O)CCCCCCCCC(=O)OCCCC [dibutyl sebacate] | 12800 mg/kg |
| CCOCCOC(=O)CCC(=O)OCCOCC [diethoxyethyl succinate] | 5000 mg/kg |
| CC(C)COC(=O)CCCCC(=O)OCC(C)C [diisobutyl adipate] | 12800 mg/kg |
| CCO [ethanol] | 15000 mg/kg |
| CCCCCCCCCCCC(=O)OCC [ethyl laurate] | 5000 mg/kg |
| CC(O)CO (stereo not shown) [propylene glycol] | 15000 mg/kg |
